From ChEMBL document CHEMBL1201862, “PubChem BioAssay data set” (2004)
Where a name gives a salt, the structure may show the parent alone.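 Exposure lasted 48 hours, with cells grown in 96-well plates and compounds tested at five concentrations. At the GI50, growth is halved.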 Activity calls are given as the source filed them. Rule as the data show it: active = GI50 up to about 1.1 µM and inactive = higher.

Legend:
Test in all cases: DTP human tumour cell line panel, 48 h
HOP-62 = test system: HOP-62
U-251 = test system: U-251
OVCAR-8 = test system: OVCAR-8
HL-60 = test system: HL-60
ACHN = test system: ACHN
LOX IMVI = test system: LOX IMVI
KM12 = test system: KM12
SK-OV-3 = test system: SK-OV-3
SK-MEL-5 = test system: SK-MEL-5
SN12C = test system: SN12C
IGROV-1 = test system: IGROV-1
UO-31 = test system: UO-31
SW-620 = test system: SW-620
MOLT-4 = test system: MOLT-4
NCI-H226 = test system: NCI-H226
NCI-H522 = test system: NCI-H522

Measured: GI50

Cc1cc(C)nc(NS(=O)(=O)c2ccc(NC(=O)c3ccc(Cl)c4c(Nc5ccc(S(=O)(=O)Nc6nc(C)cc(C)n6)cc5)c5ccccc5nc34)cc2)n1
inactive: HOP-62 6.44 µM | U-251 3.24 µM | OVCAR-8 17.4 µM | HL-60 3.15 µM | ACHN 26.9 µM | LOX IMVI 3.91 µM | KM12 21.8 µM | SK-OV-3 13.7 µM | SK-MEL-5 17.7 µM | SN12C 3.14 µM | IGROV-1 3.31 µM | UO-31 24.9 µM | SW-620 18.2 µM | MOLT-4 4.5 µM

CCOC(=O)c1sc2c(C(=O)OCC)n3cc(C)cc(C)c3c2c1O
inactive: NCI-H226 > 100 µM | U-251 > 100 µM | OVCAR-8 > 100 µM | ACHN > 100 µM | LOX IMVI > 100 µM | KM12 > 100 µM | SK-OV-3 > 100 µM | SK-MEL-5 > 100 µM | SN12C > 100 µM | NCI-H522 80.4 µM | IGROV-1 > 100 µM | UO-31 > 100 µM | SW-620 > 100 µM | MOLT-4 > 100 µM

CC(C)(C)c1cc(C(O)(C(F)(F)F)C(F)(F)F)c2c(c1)C(C(F)(F)F)(C(F)(F)F)OC(C(C)(C)C)N2 (centres undefined)
inactive: NCI-H226 2.7 µM | U-251 3.61 µM | OVCAR-8 3.05 µM | ACHN 2.72 µM | KM12 3.65 µM | SK-OV-3 1.43 µM | SK-MEL-5 1.57 µM | SN12C 3.3 µM | NCI-H522 2.75 µM | IGROV-1 4.95 µM | UO-31 7.55 µM | SW-620 3.21 µM | MOLT-4 1.63 µM

COC(=O)C1=CO[C@@H](C)[C@@H]2Cn3ccc4c5ccccc5nc-4c3C[C@H]12 [ALSTONINE HYDROCHLORIDE]
inactive: HOP-62 > 100 µM | NCI-H226 > 100 µM | U-251 > 100 µM | OVCAR-8 > 100 µM | ACHN > 100 µM | LOX IMVI > 100 µM | SK-OV-3 > 100 µM | SK-MEL-5 61.2 µM | SN12C > 100 µM | NCI-H522 51.6 µM | IGROV-1 > 100 µM | UO-31 > 100 µM | SW-620 > 100 µM | MOLT-4 90.6 µM

Cn1c(=O)c2[nH]cnc2n(CC(=O)O)c1=O
inactive: HOP-62 > 100 µM | NCI-H226 > 100 µM | U-251 > 100 µM | OVCAR-8 > 100 µM | ACHN > 100 µM | KM12 > 100 µM | SK-OV-3 > 100 µM | SK-MEL-5 > 100 µM | SN12C > 100 µM | NCI-H522 > 100 µM | IGROV-1 > 100 µM | UO-31 > 100 µM | SW-620 > 100 µM | MOLT-4 > 100 µM
